Data as given in patent US20110165652A1, “COMPOSITIONS, METHODS AND SYSTEMS FOR SINGLE MOLECULE SEQUENCING” (LIFE TECHNOLOGIES CORPORATION, priority 2008, published 2011).

Experiments:
Assay type in all cases: biochemical
[1] = tested on: template specifying incorporation of a single γ-labeled nucleotide; test: Real time on-surface single molecule detection of γ-labeled nucleotide incorporation; details: for Activity on Detection System: more signals: number of signals relative to parent enzyme
Method: Real time “On surface” experiments were performed to characterize the activity of the Phi29 variants on an exemplary single molecule sequencing system (FIGS. 72A and B). Chambered slides were prepared to facilitate injection and multiple experiments data collection from several chambers using a single slide. The template specified incorporation of a single γ-labeled nucleotide. The samples were excited using a 488 nm Argon ion laser at 2.5 mW and the data were collected at 25 ms integration time. Each stream of data was collected for 1500 frames, consecutive streams were collected for ˜5 minutes by moving to new fields of views (FOVs). FRETAN software was used to obtain the donor and acceptor traces.
After trace analysis, the selected signals (with acceptor signal over background greater than 4, i.e., ASN≧4) were characterized by examining attributes including duration, ASN and timing of signal appearance (i.e., start of signals). The variants that are of special interest include Variants 2 and 3.

[2] = tested on: 5′ fluorescein-labeled primer:template duplex; test: Ensemble primer extension with gamma-labeled dNTP by Phi29 mutant protein; details: for Ensemble Extension Activity: γ-nucleotide incorporation / Ensemble Extension Activity: activity with base-labeled nucleotides: relative to parent Phi29 exo(−) D12A/D66A; for Ensemble Extension Activity: γ-nucleotide incorporation: 0.5 μM or 5 μM gamma-labeled dNTP, 10 seconds to 5 minutes
Source text: Table 1, below, summarizes the ability of each mutant Phi29 polymerase to incorporate gamma-labeled nucleotides (as indicated in the column entitled “Ensemble Extension Activity”), fidelity of replication (as indicated in the column entitled “Fidelity”) and for activity in a single-molecule detected system, as depicted in FIGS. 20-59′ and 69-76 and associated description (see below), and indicated in the last column, entitled “Activity on Detection System.” Each and every mutation introduced into a given Phi29 mutant protein is listed in the column entitled “Mutations”; mutations are designated by the original amino acid/its position/its replacement, e.g., V250A means that valine at position 250 was replaced by alanine by site specific mutagenesis. If two or more amino acid substitutions are made, then each is designated as above and separated by a “/”. The predicted effect of a given mutation on polymerase activity, based on structure-function analysis of Phi29 polymerase, is provided in the column entitled “Expected Effect.” The various Phi29 mutants generated via selective mutagenesis, along with any applicable results of extension studies, fidelity assays and single molecule detection studies using each mutant protein, are collectively summarized in Table 1, below. To perform the extension studies, 330 nM Phi29 mutant protein and 100 nM 5′ fluorescein-labeled primer:template duplex were co-incubated in a solution comprising 50 mM Tris (pH 7.0), 2 mM MnCl2, 2 mM DTT, 0.1% Triton-X-100, 0.01% Tween-20. The reactions were initiated by addition of 0.5 μM or 5 μM of gamma-labeled dNTP, and quenched via addition of 30 mM EDTA at timepoints ranging from 10 seconds to 5 minutes. The reaction products were then separated on a 20% denaturing acrylamide gel and imaged on a Bio-Rad Molecular Imager FX. The intensity of each reaction product was quantified using Bio-Rad Quantity One software. FIGS. 20-59′ depict the results of extension studies conducted using specific Phi29 mutants.

[3] = tested on: 5′ fluorescein-labeled primer:template duplex; test: Replication fidelity: primer extension with incorrect (non-complementary) gamma-labeled nucleotide; details: incorrect gamma-labeled nucleotide in lieu of the complementary one
Method: To assay the replication fidelity of each mutant Phi29 polymerase protein, primer extensions were carried out in the same manner, except that an incorrect (i.e., non-complementary) gamma-labeled nucleotide was added to the extension mixture in lieu of the complementary nucleotide, and the amount of extended product following extension in presence of the incorrect nucleotide was analyzed.

Substance | Activity on Detection System: more signals [1] | Ensemble Extension Activity: γ-nucleotide incorporation [2] | other results
D456S: Phi29 exo(−) (D12A/D66A) polymerase mutant [Variant D456S] | Fewer signals. | Impaired | –
D458N: Phi29 exo(−) (D12A/D66A) polymerase mutant [Variant D458N] | – | No activity | Fidelity (mis-incorporation) [3]: No activity
E375A/Q380A: Phi29 exo(−) (D12A/D66A) polymerase mutant | 3.5x more signals. | More efficient | –
E375C: Phi29 exo(−) (D12A/D66A) polymerase mutant [Variant E375C] | Slightly higher | More efficient | Activity on Detection System: Signals detected (timing of appearance) ([1]; relative to parent enzyme): earlier.; Activity on Detection System: high ASB signals ([1]; relative to parent enzyme): More high ASB signals.
E375Y: Phi29 exo(−) (D12A/D66A) polymerase mutant [Variant E375Y] | 3x more signals. | More efficient | Activity on Detection System: long duration signals ([1]; relative to parent enzyme): More long duration; extension (FIG. 70C, 70D) ([2]; ensemble PAGE analyses, γ-nucleotides): most significant increase in extension
K478A: Phi29 exo(−) (D12A/D66A) polymerase mutant [Variant K478A] | – | Decreased γ-nucleotide | –
K512A: Phi29 exo(−) (D12A/D66A) polymerase mutant [Variant K512A] | – | Slightly decreased γ- | –
L384R: Phi29 exo(−) (D12A/D66A) polymerase mutant [Variant L384R] | – | Slightly decreased γ- | –
N387A: Phi29 exo(−) (D12A/D66A) polymerase mutant [Variant N387A] | Fewer signals. | Significantly decreased γ- | –
N387Y: Phi29 exo(−) (D12A/D66A) polymerase mutant [Variant N387Y] | – | Significantly decreased γ- | –
Q380A: Phi29 exo(−) (D12A/D66A) polymerase mutant [Variant Q380A] | 2.5x more signals. | More efficient | Fidelity (mis-incorporation) [3]: No mis-
S388G: Phi29 exo(−) (D12A/D66A) polymerase mutant [Variant S388G] | – | Decreased γ-nucleotide | –
V250A/E375A/Q380A/D456E: Phi29 exo(−) (D12A/D66A) polymerase mutant | – | Impaired | –
V250I/E375A/Q380A: Phi29 exo(−) (D12A/D66A) polymerase mutant | – | Decreased rate | –
V250I/E375C: Phi29 exo(−) (D12A/D66A) polymerase mutant | – | Decreased rate | –
V250I/E375Y: Phi29 exo(−) (D12A/D66A) polymerase mutant | – | Decreased rate | –
V250I: Phi29 exo(−) (D12A/D66A) polymerase mutant [Variant V250I] | – | Decreased rate | Activity on Detection System: long duration signals ([1]; relative to parent enzyme): More long duration
Y254F: Phi29 exo(−) (D12A/D66A) polymerase mutant [Variant Y254F] | – | Decreased γ-nucleotide | Ensemble Extension Activity: activity with base-labeled nucleotides [2]: incorporation, but increased
Y254V: Phi29 exo(−) (D12A/D66A) polymerase mutant [Variant Y254V] | – | Decreased γ-nucleotide | Ensemble Extension Activity: activity with base-labeled nucleotides [2]: incorporation, but increased
